The text below walks through data of ChEMBL document CHEMBL1201862, “PubChem BioAssay data set” (2004).

Test systems include LXFL 529; M14; PC-3; EKVX; HCT-15; OVCAR-4; SNB-78; K562; NCI-H460; UO-31; KM12; SF-295; SK-OV-3; ACHN; SK-MEL-2; SF-539; HOP-92; TK-10; Malme-3M.
What all share (test): NCI tumour cell line growth inhibition, 48 h

SMILES strings stand for the structures.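 All cell lines were grown in 96-well plates and treated with compound for 48 hours. At the GI50, growth is halved.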 The source made the active and inactive calls. No stated cut-off is given here; in the data, active = GI50 up to about 1.1 µM and inactive = higher.

Consider `COc1ccc(Nc2nnc(-c3nsc4ccccc34)s2)cc1`, for which the GI50 was > 100 µM (inactive) in the assay on LXFL 529; > 100 µM (inactive) with M14; > 100 µM (inactive) with PC-3; 58.6 µM (inactive) in the assay with EKVX; 62.8 µM with HCT-15; 2.47 µM (inactive) with OVCAR-4. The GI50 in the assay on SNB-78 is > 100 µM (inactive); in the assay on K562, 47.2 µM (inactive); in the assay on NCI-H460, 15 µM (inactive); in the assay with UO-31, 10.2 µM (inactive); with KM12, > 100 µM (inactive); in the assay with SF-295 it was 10.8 µM (inactive). The GI50 with SK-OV-3 is 2.52 µM (inactive); in the assay with ACHN it was 11.1 µM (inactive); in the assay on SK-MEL-2, 78.7 µM (inactive); with SF-539 it was 31.8 µM (inactive); in the assay on HOP-92 it was 9.73 µM (inactive); with TK-10, > 49.3 µM (inactive).
Take `CC(=O)/C(=C\C1=CCCO1)C(=O)Nc1ccccc1C`: the GI50 is > 100 µM (inactive) in the assay with LXFL 529; > 100 µM (inactive) in the assay on M14; > 100 µM (inactive) in the assay with EKVX; more than 100 µM in the assay with HCT-15; > 100 µM (inactive) in the assay with Malme-3M; > 100 µM (inactive) in the assay on OVCAR-4. Further, the GI50 with SNB-78, in the assay on K562, in the assay with NCI-H460, with UO-31, with KM12 and with SF-295 was > 100 µM (inactive) in each case. The GI50 in the assay with SK-OV-3, in the assay with ACHN, in the assay on SK-MEL-2, in the assay on SF-539, in the assay on HOP-92 and in the assay on TK-10 was > 100 µM (inactive) in each case.
